In US9505742B2, “3,4-dihydro-2H-isoquinoline-1-one and 2,3-dihydro-isoindol-1-one compounds” (Hoffmann-La Roche Inc., priority 2013, dated 2016):

What was measured:
CYP11B2 = CYP11B2 (Homo sapiens, UniProt P19099); details: patients with primary aldosteronism, cited from earlier work
[1] = rat CKD model, cited from earlier work; for plasma aldosterone: FAD286 4 weeks, spironolactone 4 and 8 weeks of treatment
[2] = rats with experimental heart failure; cited from earlier work
human CYP11B1 = target: T1, human CYP11B1 (Homo sapiens, UniProt P15538); assay: G-402 cellular enzyme assay, human CYP11B1 (cortisol release, HTRF); assay type: cell-based; details: G-402 cells expressing human CYP11B1; 1 μM Deoxycortisol
T1 construct: The expression plasmids contains the ORF for either human/cyno CYP11B1 or CYP11B2; expressed in transfected cells
T1 sequence (P15538 25-503): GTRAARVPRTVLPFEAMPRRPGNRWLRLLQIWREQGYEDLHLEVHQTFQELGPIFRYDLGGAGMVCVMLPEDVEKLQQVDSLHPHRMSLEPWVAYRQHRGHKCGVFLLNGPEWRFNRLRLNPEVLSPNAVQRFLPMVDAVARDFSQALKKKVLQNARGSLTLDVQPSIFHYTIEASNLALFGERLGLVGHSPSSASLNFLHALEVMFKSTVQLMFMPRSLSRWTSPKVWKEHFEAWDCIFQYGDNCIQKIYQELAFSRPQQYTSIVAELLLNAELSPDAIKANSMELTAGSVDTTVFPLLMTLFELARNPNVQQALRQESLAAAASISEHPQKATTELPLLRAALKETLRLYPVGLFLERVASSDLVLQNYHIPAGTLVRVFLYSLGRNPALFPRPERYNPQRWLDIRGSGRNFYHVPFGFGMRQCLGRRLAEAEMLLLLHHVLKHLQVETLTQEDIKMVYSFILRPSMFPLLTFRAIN
Source text: (§1) Herein we identified the use of the G-402 cell line as a host cell to ectopically express (transiently or stably) enzymes of the CYP11 family. Specifically we developed stable G-402 cells expressing ectopically human CYP11B1, human CYP11B2, human CYP11A1, cynmolgus CYP11B1 or cynomolgus CYP11B2 enzyme activity. Importantly the identified cell line G-402 expresses co-factors (adrenodoxin and adrenodoxin reductase) important for the activity of the CYP11 family and no relevant enzyme activity of the CYP11 family (in comparison to H295R cells) was detected in these cells. Therefore the G-402 cell line is uniquely suited as a host cell for the ectopic expression of enzymes from the CYP11 family. G-402 cells can be obtained from ATCC (CRL-1440) and were originally derived from a renal leiomyoblastoma.
(§2) The expression plasmids contains the ORF for either human/cyno CYP11B1 or CYP11B2 under the control of a suitable promoter (CMV-promoter) and a suitable resistance marker (neomycin). Using standard techniques the expression plasmid is transfected into G-402 cells and these cells are then selected for expressing the given resistance markers. Individual cell-clones are then selected and assessed for displaying the desired enzymatic activity using 11-Deoxycorticosterone (Cyp11B2) or 11-Deoxycortisol (Cyp11B) as a substrate.
(§3) G-402 cells expressing CYP11 constructs were established as described above and maintained in McCoy's 5a Medium Modified, ATCC Catalog No. 30-2007 containing 10% FCS and 400 μg/ml G418 (Geneticin) at 37° C. under an atmosphere of 5% CO2/95% air. Cellular enzyme assays were performed in DMEM/F12 medium containing 2.5% charcoal treated FCS and appropriate concentration of substrate (0.3-10 uM 11-Deoxycorticosterone, 11-Deoxycortisol or Corticosterone). For assaying enzymatic activity, cells were plated onto 96 well plates and incubated for 16 h. An aliquot of the supernatant is then transferred and analyzed for the concentration of the expected product (Aldosterone for CYP11B2; Cortisol for CYP11B1). The concentrations of these steroids can be determined using HTRF assays from CisBio analyzing either Aldosterone or Cortisol.
(§4) Inhibition of the release of produced steroids can be used as a measure of the respective enzyme inhibition by test compounds added during the cellular enzyme assay. The dose dependent inhibition of enzymatic activity by a compound is calculated by means of plotting added inhibitor concentrations (x-axes) vs. measured steroid/product level (y-axes). The inhibition is then calculated by fitting the following 4-parameter sigmoidal function (Morgan-Mercer-Flodin (MMF) model) to the raw data points using the least squares method:
(§5) [formula] wherein, A is the maximum y value, B is the EC50 factor determined using XLFit, C is the minimum y value and D is the slope value.
(§6) EC50 values for compounds claimed herein were tested with the G402-based assay system described. Cyp11B2 enzyme activity was tested in presence of 1 μM Deoxycorticosterone and variable amounts of inhibitors; Cyp11B1 enzyme activity was tested in presence of 1 μM Deoxycortisol and variable amounts of inhibitors.

human CYP11B2 = target: T2, human CYP11B2 (Homo sapiens, UniProt P19099); assay: G-402 cellular enzyme assay, human CYP11B2 (aldosterone release, HTRF); assay type: cell-based; details: G-402 cells expressing human CYP11B2; 1 μM Deoxycorticosterone
T2 construct: The expression plasmids contains the ORF for either human/cyno CYP11B1 or CYP11B2; expressed in transfected cells
T2 sequence (P19099 25-503): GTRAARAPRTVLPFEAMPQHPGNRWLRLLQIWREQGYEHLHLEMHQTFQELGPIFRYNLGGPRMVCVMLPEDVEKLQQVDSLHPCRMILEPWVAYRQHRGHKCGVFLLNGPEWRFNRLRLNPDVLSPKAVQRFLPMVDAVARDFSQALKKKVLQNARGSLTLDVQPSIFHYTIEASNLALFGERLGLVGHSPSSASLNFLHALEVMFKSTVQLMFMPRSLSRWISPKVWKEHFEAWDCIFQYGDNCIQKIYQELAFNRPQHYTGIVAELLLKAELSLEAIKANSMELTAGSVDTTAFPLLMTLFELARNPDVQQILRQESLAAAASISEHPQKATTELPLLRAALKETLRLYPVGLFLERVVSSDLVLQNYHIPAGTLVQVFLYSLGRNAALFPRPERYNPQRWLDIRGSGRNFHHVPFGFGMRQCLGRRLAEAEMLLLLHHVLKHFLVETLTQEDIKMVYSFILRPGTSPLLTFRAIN
Source text: as §1, §2, §3, §4, §5, §6

SMILES | EC50 (human CYP11B1) [nM] | EC50 (human CYP11B2) [nM] | also measured
N#Cc1ccc([C@H]2CCc3cncn32)c(F)c1 [LCI699] | – | – | circulating aldosterone levels (CYP11B2; oral): significantly lower; blood pressure (CYP11B2): mildly decreased; hypokalemia (CYP11B2): corrected; selectivity / effects on the glucocorticoid axis (CYP11B2): poor selectivity
CC(=O)S[C@@H]1CC2=CC(=O)CC[C@]2(C)[C@H]2CC[C@@]3(C)[C@@H](CC[C@@]34CCC(=O)O4)[C@H]12 [spironolactone] | – | – | plasma aldosterone [1]: increased; angiotensin II and salt-stimulated PAI-1 mRNA expression in the aorta and the heart [1]: enhanced; renal effects of angiotensin II and high salt (albuminuria, azotemia, renovascular hypertrophy, glomerular injury, PAI-1 and osteopontin mRNA, tubulointerstitial fibrosis) [1]: prevented these renal effects
N#Cc1ccc(C2CCCc3cncn32)cc1 (centres unmarked) [FAD286] | – | – | plasma aldosterone [1]: reduced; angiotensin II and salt-stimulated PAI-1 mRNA expression in the aorta and the heart [1]: not; renal effects of angiotensin II and high salt (albuminuria, azotemia, renovascular hypertrophy, glomerular injury, PAI-1 and osteopontin mRNA, tubulointerstitial fibrosis) [1]: prevented these renal effects; blood pressure and cardiovascular function and structure [2]: improved; kidney function and morphology [2]: improve
CCS(=O)(=O)N1CCC(c2cncc(N3Cc4cc(Cl)ccc4C3=O)c2)CC1 [Example 21, 5-Chloro-2-[5-(1-ethylsulfonylpiperidin-4-yl)pyridin-3-yl]-3H-isoindol-1-one] | 1050 | 25 | –
CCCS(=O)(=O)N1CCC(c2cncc(N3C(=O)c4ccc(Cl)cc4C3(C)C)c2)C1 (single isomer, unassigned; (+)) [Example 8, (+)-5-chloro-3,3-dimethyl-2-[5-[(3R or 3S)-1-propylsulfonylpyrrolidin-3-yl]pyridin-3-yl]isoindol-1-one] | 109 | 4 | –
COc1ccc2c(n1)C(C)(C)N(c1cncc(C3(F)CCN(S(=O)(=O)C4CC4)CC3)c1)C2=O [Example 45, 6-[5-(1-Cyclopropylsulfonyl-4-fluoro-4-piperidyl)-3-pyridyl]-2-methoxy-7,7-dimethyl-pyrrolo[3,4-b]pyridin-5-one] | 1250 | 30 | –
CC1(C)c2cc(Cl)ccc2C(=O)N1c1cncc(C2CCCN(S(C)(=O)=O)C2)c1 (single isomer, unassigned; (-)) [Example 6, (−)-5-chloro-3,3-dimethyl-2-[5-[(3S or 3R)-1-methylsulfonylpiperidin-3-yl]pyridin-3-yl]isoindol-1-one] | 332 | 15 | –
CCS(=O)(=O)N1CCC(c2cncc(N3C(=O)c4ccc(Cl)cc4C3(C)C)c2)C1 (centres unmarked) [Example 7, 5-Chloro-2-[5-(1-ethylsulfonylpyrrolidin-3-yl)pyridin-3-yl]-3,3-dimethylisoindol-1-one] | 149 | 2 | –
CC1(C)c2cc(Cl)ccc2C(=O)N1c1cncc(C2CCN(S(=O)(=O)C3CC3)C2)c1 (single isomer, unassigned; (+)) [Example 12, (+)-5-chloro-2-[5-[(3R or 3S)-1-cyclopropylsulfonylpyrrolidin-3-yl]pyridin-3-yl]-3,3-dimethylisoindol-1-one] | 75 | 2 | –
CCS(=O)(=O)N1CCC(c2cncc(N3C(=O)c4ccc(OC)nc4C3(C)C)c2)CC1 [Example 46, 6-[5-(1-Ethylsulfonyl-4-piperidyl)-3-pyridyl]-2-methoxy-7,7-dimethyl-pyrrolo[3,4-b]pyridin-5-one] | 1920 | 23 | –
